Values joined by “and” are separate entries in the source; they are usually repeats but may differ in a detail not shown here. Identical values can stand only once.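 These data come from cells grown in 96-well plates and exposed to compound for 48 hours at five concentrations. GI50 marks 50% less growth. At the TGI there is no net growth.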

In the first experiment the test system is 786-0 renal. The experiment can be described thus: growth of human tumour cells (NCI), 48 h.
Regarding `CCCN(Cc1ccc(F)cc1)c1ccc(CO)c(Cl)c1`, the GI50 was 4.77 µM and the TGI amounted to 19.7 µM.
For `CC[C@](C)(O)C(=O)O[C@H]1C(=O)O[C@@H]2C[C@H]3C(C)=CC(=O)[C@@H](O)[C@]3(C)[C@H]3[C@@]4(O)OC[C@]32[C@@H]1[C@@H](C)[C@H]4O`, the TGI worked out at 0.832 µM.
In the case of `CCN1C(=O)N(CC)C2C1NN=c1s/c(=C3\C(=O)N(C(C)C)c4ccccc43)c(=O)n12` (configuration not stated), the GI50 is 0.852 µM and the TGI turned out to be 17.7 µM.
As to `NC(=O)[C@H]1CCN(c2ncnc(N)c2F)C[C@@H]1N1CCC[C@@H](Nc2cc(Cl)cc(C(F)(F)F)c2)C1=O`, the GI50 is 21.8 µM and the TGI is over 100 µM.
For `CCN(CC)c1ccc(/C=C/c2cc(C)c3ccccc3n2)cc1` the same measures were 4.51 µM and 16.2 µM.
The matching figures for `Cc1ccc2[nH]c(C(=O)NN3C(=O)CSC34CCCCC4C)c(-c3ccccc3)c2c1` (configuration not stated): 17.3 µM and 37.9 µM.
Turning to `O=C(CCl)c1ccc([N+](=O)[O-])o1`, the GI50 is 3.32 µM and the TGI worked out at 10.9 µM.
`Nc1ncnc2c1ccn2C1OC2COP(=O)(O)OC2C1O` (configuration not stated) came in with a TGI of over 20.9 µM.
As for `Cc1cc(N2CCCCC2)nc(N(CCNc2ccnc3cc(Cl)ccc23)Cc2ccco2)n1`, the GI50 is 1.66 µM and the TGI worked out at 3.07 µM.
For `CCCN1C(=O)/C(=c2\sc3n(c2=O)C2C(NN=3)N(CC)C(=O)N2CC)c2ccccc21` (configuration not stated) the same measures were 0.89 µM and 16.5 µM.
`CCn1c(-c2nonc2N)nc2cncc(C(=O)N3CCNCC3)c21`: the GI50 was over 25 µM and the TGI is over 25 µM.

A further experiment concerns A498 renal. The experiment can be described thus: growth of human tumour cells (NCI), 48 h.
On to `CCCN(Cc1ccc(F)cc1)c1ccc(CO)c(Cl)c1`, for which the GI50 is 0.0236 µM and the TGI was found to be 0.102 µM.
Regarding `CC[C@](C)(O)C(=O)O[C@H]1C(=O)O[C@@H]2C[C@H]3C(C)=CC(=O)[C@@H](O)[C@]3(C)[C@H]3[C@@]4(O)OC[C@]32[C@@H]1[C@@H](C)[C@H]4O`, the GI50 was 0.95 µM; the TGI is 3.36 µM and 1.15 µM.
`CCN1C(=O)N(CC)C2C1NN=c1s/c(=C3\C(=O)N(C(C)C)c4ccccc43)c(=O)n12` (configuration not stated): the GI50 was 0.239 µM and the TGI amounted to 0.91 µM.
For `NC(=O)[C@H]1CCN(c2ncnc(N)c2F)C[C@@H]1N1CCC[C@@H](Nc2cc(Cl)cc(C(F)(F)F)c2)C1=O` the same measures were 3.25 µM and 18.7 µM.
`CCN(CC)c1ccc(/C=C/c2cc(C)c3ccccc3n2)cc1`: the GI50 was 2.32 µM and the TGI came out at 15.4 µM.
Consider `Cc1ccc2[nH]c(C(=O)NN3C(=O)CSC34CCCCC4C)c(-c3ccccc3)c2c1` (configuration not stated), for which the GI50 is 17.6 µM and the TGI worked out at 34.5 µM.
The matching figures for `O=C(CCl)c1ccc([N+](=O)[O-])o1`: 13.6 µM and 27.5 µM.
`Nc1ncnc2c1ccn2C1OC2COP(=O)(O)OC2C1O` (configuration not stated): the TGI worked out at 28.2 µM.
As for `Cc1cc(N2CCCCC2)nc(N(CCNc2ccnc3cc(Cl)ccc23)Cc2ccco2)n1`, the GI50 is 1.92 µM and the TGI amounted to 5.09 µM.
For `CCCN1C(=O)/C(=c2\sc3n(c2=O)C2C(NN=3)N(CC)C(=O)N2CC)c2ccccc21` (configuration not stated), the GI50 was 0.188 µM and the TGI was found to be 0.77 µM.
For `CCn1c(-c2nonc2N)nc2cncc(C(=O)N3CCNCC3)c21` the same measures were over 25 µM and over 25 µM.

The next experiment relates to A549 NSCLC. The experiment can be described thus: growth of human tumour cells (NCI), 48 h.
In the case of `CCCN(Cc1ccc(F)cc1)c1ccc(CO)c(Cl)c1`, the GI50 was 2.12 µM and the TGI worked out at 16.5 µM.
For `CC[C@](C)(O)C(=O)O[C@H]1C(=O)O[C@@H]2C[C@H]3C(C)=CC(=O)[C@@H](O)[C@]3(C)[C@H]3[C@@]4(O)OC[C@]32[C@@H]1[C@@H](C)[C@H]4O`, the GI50 is 2.75 µM; the TGI was 14.9 µM and 9.66 µM.
`CCN1C(=O)N(CC)C2C1NN=c1s/c(=C3\C(=O)N(C(C)C)c4ccccc43)c(=O)n12` (configuration not stated): the GI50 is 0.459 µM and the TGI was over 100 µM.
`NC(=O)[C@H]1CCN(c2ncnc(N)c2F)C[C@@H]1N1CCC[C@@H](Nc2cc(Cl)cc(C(F)(F)F)c2)C1=O`: the GI50 was 15.8 µM and the TGI was over 100 µM.
Consider `CCN(CC)c1ccc(/C=C/c2cc(C)c3ccccc3n2)cc1`, for which the GI50 was 3.99 µM and the TGI is over 100 µM.
For `Cc1ccc2[nH]c(C(=O)NN3C(=O)CSC34CCCCC4C)c(-c3ccccc3)c2c1` (configuration not stated) the same measures were 13.2 µM and 28.2 µM.
For `O=C(CCl)c1ccc([N+](=O)[O-])o1` the same measures were 21.1 µM and 54.4 µM.
Compound `Nc1ncnc2c1ccn2C1OC2COP(=O)(O)OC2C1O` (configuration not stated) came in with a TGI of 12.8 µM.
For the compound `Cc1cc(N2CCCCC2)nc(N(CCNc2ccnc3cc(Cl)ccc23)Cc2ccco2)n1`, the GI50 was 2.69 µM and the TGI was determined as 7.74 µM.
The matching figures for `CCCN1C(=O)/C(=c2\sc3n(c2=O)C2C(NN=3)N(CC)C(=O)N2CC)c2ccccc21` (configuration not stated): 0.854 µM and 16.5 µM.
For `CCn1c(-c2nonc2N)nc2cncc(C(=O)N3CCNCC3)c21` the same measures were over 25 µM and over 25 µM.

The next experiment has as its system ACHN renal. The experiment can be described thus: growth of human tumour cells (NCI), 48 h.
Turning to `CCCN(Cc1ccc(F)cc1)c1ccc(CO)c(Cl)c1`, the GI50 is 9.98 µM and the TGI came out at 22.8 µM.
The compound `CC[C@](C)(O)C(=O)O[C@H]1C(=O)O[C@@H]2C[C@H]3C(C)=CC(=O)[C@@H](O)[C@]3(C)[C@H]3[C@@]4(O)OC[C@]32[C@@H]1[C@@H](C)[C@H]4O` yielded a TGI of 1.69 µM.
`CCN1C(=O)N(CC)C2C1NN=c1s/c(=C3\C(=O)N(C(C)C)c4ccccc43)c(=O)n12` (configuration not stated): the GI50 is 0.525 µM and the TGI is over 42.2 µM.
The matching figures for `NC(=O)[C@H]1CCN(c2ncnc(N)c2F)C[C@@H]1N1CCC[C@@H](Nc2cc(Cl)cc(C(F)(F)F)c2)C1=O`: 7 µM and 76.3 µM.
The matching figures for `CCN(CC)c1ccc(/C=C/c2cc(C)c3ccccc3n2)cc1`: 6.12 µM and over 100 µM.
The matching figures for `Cc1ccc2[nH]c(C(=O)NN3C(=O)CSC34CCCCC4C)c(-c3ccccc3)c2c1` (configuration not stated): 17.3 µM and 33.3 µM.
Turning to `O=C(CCl)c1ccc([N+](=O)[O-])o1`, the GI50 was 1.68 µM and the TGI was found to be 3.26 µM.
In turn, `Nc1ncnc2c1ccn2C1OC2COP(=O)(O)OC2C1O` (configuration not stated) came in with a TGI of 14.2 µM.
As to `Cc1cc(N2CCCCC2)nc(N(CCNc2ccnc3cc(Cl)ccc23)Cc2ccco2)n1`, the GI50 was 2.72 µM and the TGI was 8.06 µM.
Take `CCCN1C(=O)/C(=c2\sc3n(c2=O)C2C(NN=3)N(CC)C(=O)N2CC)c2ccccc21` (configuration not stated): the GI50 was 0.625 µM and the TGI is 17.1 µM.
Regarding `CCn1c(-c2nonc2N)nc2cncc(C(=O)N3CCNCC3)c21`, the GI50 is over 25 µM and the TGI is over 25 µM.

A further experiment relates to K-562 leukemia. The experiment in a line: growth of human tumour cells (NCI), 48 h.
In the case of `CCCN(Cc1ccc(F)cc1)c1ccc(CO)c(Cl)c1`, the GI50 was 2.22 µM and the TGI was 15.2 µM.
Regarding `CC[C@](C)(O)C(=O)O[C@H]1C(=O)O[C@@H]2C[C@H]3C(C)=CC(=O)[C@@H](O)[C@]3(C)[C@H]3[C@@]4(O)OC[C@]32[C@@H]1[C@@H](C)[C@H]4O`, the GI50 was 0.0841 µM.
Take `CCN1C(=O)N(CC)C2C1NN=c1s/c(=C3\C(=O)N(C(C)C)c4ccccc43)c(=O)n12` (configuration not stated): the GI50 is 0.329 µM and the TGI is over 100 µM.
The matching figures for `NC(=O)[C@H]1CCN(c2ncnc(N)c2F)C[C@@H]1N1CCC[C@@H](Nc2cc(Cl)cc(C(F)(F)F)c2)C1=O`: 18.4 µM and over 100 µM.
For `CCN(CC)c1ccc(/C=C/c2cc(C)c3ccccc3n2)cc1` the same measures were 0.64 µM and 15 µM.
For `Cc1ccc2[nH]c(C(=O)NN3C(=O)CSC34CCCCC4C)c(-c3ccccc3)c2c1` (configuration not stated) the same measures were 10.8 µM and 42.1 µM.
For the compound `O=C(CCl)c1ccc([N+](=O)[O-])o1`, the GI50 is 1.18 µM and the TGI was over 19.8 µM.
Consider `Nc1ncnc2c1ccn2C1OC2COP(=O)(O)OC2C1O` (configuration not stated), for which the TGI came out at 19 µM.
`Cc1cc(N2CCCCC2)nc(N(CCNc2ccnc3cc(Cl)ccc23)Cc2ccco2)n1`: the GI50 was 1.54 µM and the TGI amounted to 4.03 µM.
As to `CCCN1C(=O)/C(=c2\sc3n(c2=O)C2C(NN=3)N(CC)C(=O)N2CC)c2ccccc21` (configuration not stated), the GI50 is 0.374 µM and the TGI is over 100 µM.
The matching figures for `CCn1c(-c2nonc2N)nc2cncc(C(=O)N3CCNCC3)c21`: over 25 µM and over 25 µM.

Source of the values: PubChem BioAssay (NCI).
